Data: ChEMBL document CHEMBL4699654, “Computational Fragment-Based Design Facilitates Discovery of Potent and Selective Monoamine Oxidase-B (MAO-B) Inhibitor” (J Med Chem, 2020)

What was measured:
[1] = organism: Homo sapiens; test: Selectivity index, ratio of IC50 for recombinant human MAO-A to IC50 for recombinant human MAO-B
[2] = biological target: T1, Amine oxidase [flavin-containing] B (Homo sapiens, UniProt P27338); test: Inhibition of recombinant human MAO-B expressed in Sf9 cells using benzylamine as substrate preincubated for 15 mins followed by substrate addition for 60 mins by Luminex assay; type: cell-based
T1 sequence (P27338 whole entry): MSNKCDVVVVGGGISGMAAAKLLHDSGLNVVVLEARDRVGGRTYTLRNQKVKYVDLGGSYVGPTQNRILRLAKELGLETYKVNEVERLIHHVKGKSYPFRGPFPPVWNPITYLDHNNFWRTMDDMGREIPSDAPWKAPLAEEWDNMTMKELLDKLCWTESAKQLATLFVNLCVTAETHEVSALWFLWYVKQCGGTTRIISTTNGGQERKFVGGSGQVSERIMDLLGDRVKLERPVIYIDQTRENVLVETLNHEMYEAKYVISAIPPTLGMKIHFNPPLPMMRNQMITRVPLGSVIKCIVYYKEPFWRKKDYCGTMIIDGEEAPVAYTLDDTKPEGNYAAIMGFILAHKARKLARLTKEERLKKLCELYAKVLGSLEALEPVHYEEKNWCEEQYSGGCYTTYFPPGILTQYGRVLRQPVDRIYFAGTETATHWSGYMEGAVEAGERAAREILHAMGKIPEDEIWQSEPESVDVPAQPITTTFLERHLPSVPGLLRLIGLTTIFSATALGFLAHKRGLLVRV

[3] = biological target: T2, Amine oxidase [flavin-containing] A (Homo sapiens, UniProt P21397); test: Inhibition of recombinant human MAO-A expressed in Sf9 cells using p-tyramine as substrate preincubated for 15 mins followed by substrate addition for 60 mins by […] assay
T2 sequence (P21397 whole entry): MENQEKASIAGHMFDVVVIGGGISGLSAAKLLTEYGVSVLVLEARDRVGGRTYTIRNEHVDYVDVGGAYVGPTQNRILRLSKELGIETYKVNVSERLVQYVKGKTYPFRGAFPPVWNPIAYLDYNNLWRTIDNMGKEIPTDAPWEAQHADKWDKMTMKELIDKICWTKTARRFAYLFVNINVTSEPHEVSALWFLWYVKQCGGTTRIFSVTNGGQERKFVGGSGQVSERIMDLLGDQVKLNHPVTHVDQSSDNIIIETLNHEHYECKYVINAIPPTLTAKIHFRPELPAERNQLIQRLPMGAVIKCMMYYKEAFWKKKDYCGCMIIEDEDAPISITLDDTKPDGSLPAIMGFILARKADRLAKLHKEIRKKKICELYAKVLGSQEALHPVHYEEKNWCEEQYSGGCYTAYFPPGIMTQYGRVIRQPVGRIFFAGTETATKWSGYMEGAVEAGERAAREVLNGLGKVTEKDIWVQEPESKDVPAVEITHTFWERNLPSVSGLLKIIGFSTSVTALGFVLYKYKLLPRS

Structure (SMILES)	Ratio IC50 [1]	IC50 [2] [nM]	IC50 [3] [nM]
C[C@H](NCc1ccc(OCc2cccc(F)c2)cc1)C(=O)NCCN1CCOCC1	–	> 10000	–
C#CCN(Cc1ccc(OCc2cccc(F)c2)cc1)[C@@H](C)C(N)=O	15	530	7790
NC(=O)[C@@H]1COCCN1Cc1ccc(OCc2cccc(F)c2)cc1	–	5410	–
CC1(C)C[C@@H](C(N)=O)N(Cc2ccc(OCc3cccc(F)c3)cc2)C1	12	1420	17500
NC(=O)[C@@H]1CC(F)(F)CN1Cc1ccc(OCc2cccc(F)c2)cc1	14	1070	14500
C#CCN(Cc1ccc(OCc2cccc(F)c2)cc1C)[C@@H](C)C(N)=O	20	320	6400
C#CCN(Cc1ccc(OCc2cccc(F)c2)cc1F)[C@@H](C)C(N)=O	94	93	8710
NC(=O)[C@@H]1CCCN1Cc1ccc(OCc2cccc(F)c2)cc1	168	204	34200
Cc1cc(OCc2cccc(F)c2)ccc1CN1CC[C@H]1C(N)=O	34	258	8650
NC(=O)[C@@H]1COCCN1Cc1ccc(OCc2cccc(F)c2)cc1F	20	2870	57600
C#CCN(C)C(=O)[C@H](C)NCc1ccc(OCc2cccc(F)c2)cc1	–	> 10000	–
C[C@H](NCc1ccc(OCc2cccc(F)c2)cc1C1CC1)C(N)=O	45	1660	75200
NC(=O)C1CN(Cc2ccc(OCc3cccc(F)c3)cc2)C1	> 7	1420	> 10000
CC1(C)C[C@@H](C(N)=O)N(Cc2ccc(OCc3cccc(F)c3)cc2F)C1	–	6350	–

These reach a lower IC50 [2]. Values come first.

Ratio IC50 [1]	IC50 [2] [nM]	IC50 [3] [nM]	Structure (SMILES)
> 140	69	> 10000	Cc1cc(OCc2cccc(F)c2)ccc1CN[C@@H](C)C(N)=O
82	68	5590	C#CCN(Cc1ccc(OCc2cccc(F)c2)cc1Cl)[C@@H](C)C(N)=O
> 163	61	> 10000	C[C@H](NCc1ccc(OCc2cccc(F)c2)cc1F)C(N)=O
391	46	18000	NC(=O)C1CCN1Cc1ccc(OCc2cccc(F)c2)cc1 (racemic)
61	35	2130	NC(=O)[C@@H]1CCN1Cc1ccc(OCc2cccc(F)c2)cc1Cl
427	28	12000	C[C@H](NCc1ccc(OCc2cccc(F)c2)cc1Cl)C(N)=O
715	26	18600	NC(=O)[C@@H]1CCN1Cc1ccc(OCc2cccc(F)c2)cc1F
1280	21	26800	NC(=O)[C@@H]1CCN1Cc1ccc(OCc2cccc(F)c2)cc1
